Data on five compounds can be found in ChEMBL document CHEMBL1687692, “Exploring α7-Nicotinic Receptor Ligand Diversity by Scaffold Enumeration from the Chemical Universe Database GDB” (ACS Med Chem Lett, 2010).

Experiment [1] concerns the target T1, Neuronal acetylcholine receptor subunit alpha-7 (Homo sapiens, UniProt P36544). In words: Antagonist activity at human alpha7 nAChR expressed in Xenopus oocyte assessed as inhibition of ACh-induced current by voltage clamp method. The class given is functional.
For experiment [2], the target named is T1, Neuronal acetylcholine receptor subunit alpha-7. The experiment in a line: Competitive antagonist activity at human alpha7 nAChR expressed in Xenopus oocyte assessed as inhibition of ACh-induced current by voltage clamp method. The class given is functional.
Experiment [3] shares this target. In words: Binding affinity to human alpha7 nAChR.
Experiment [4] has the same target. In words: Partial agonist activity at human alpha7 nAChR expressed in Xenopus oocyte […] current by voltage clamp method. Type of experiment: functional.
The target is the same in experiment [5]. In words: Non competitive antagonist activity at human alpha7 nAChR expressed in Xenopus oocyte assessed as inhibition of ACh-induced current by voltage clamp method. The class given is functional.

T1 sequence (P36544 whole entry): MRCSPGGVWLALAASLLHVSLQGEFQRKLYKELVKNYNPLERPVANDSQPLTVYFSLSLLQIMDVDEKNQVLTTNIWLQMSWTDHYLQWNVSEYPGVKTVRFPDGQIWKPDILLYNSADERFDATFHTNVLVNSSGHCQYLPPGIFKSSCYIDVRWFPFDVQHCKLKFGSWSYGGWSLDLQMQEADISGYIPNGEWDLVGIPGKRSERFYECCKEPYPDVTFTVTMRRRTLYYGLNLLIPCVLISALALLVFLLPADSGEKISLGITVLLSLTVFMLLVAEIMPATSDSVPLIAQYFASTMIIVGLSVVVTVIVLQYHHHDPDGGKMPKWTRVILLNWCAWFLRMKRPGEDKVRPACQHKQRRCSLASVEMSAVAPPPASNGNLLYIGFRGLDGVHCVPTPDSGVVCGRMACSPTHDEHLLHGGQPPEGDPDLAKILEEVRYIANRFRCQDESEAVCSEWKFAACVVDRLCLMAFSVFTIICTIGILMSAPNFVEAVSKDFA

In general, IC50 refers to the midpoint of a concentration-inhibition curve. As to `O=C(NCC12CCCN1CCC2)c1ccc(Cl)cc1`, the half-maximal inhibitory concentration (IC50) in experiment [1] was found to be 7.2 µM.

Consider `O=C(Oc1ccc(Br)cc1)N1CCCN2CCC[C@H]2C1`, for which the half-inhibitory concentration (IC50) in experiment [2] stood at 5.6 µM.

By Ki is commonly meant the equilibrium dissociation constant of an inhibitor or competing ligand from its target. One may read the EC50 as the concentration giving half of the maximal effect. As to `O=C(Oc1ccc(Br)cc1)N1CCN2CCC1CC2` [SSR180711], the Ki in experiment [3] worked out at 0.014 µM. Also, the EC50 in experiment [4] was found to be 4.4 µM.

For the compound `CC(C)N1CCCCN(C(=O)c2ccc(Cl)cc2)CC1`, the IC50 in experiment [1] is 7 µM.

Turning to `C[C@H]1CN2CCCC[C@@H]2CN1C(=O)c1ccc2c(c1)OCCO2`, the IC50 in experiment [5] is 6.1 µM.
